In test [1] the target is T1, rat MCH 1 receptor (rMCH1R) (Rattus norvegicus, UniProt P97639).
T1 construct: expressed in transfected cells; host or cells: HEK 293 (membranes)
The test is described as follows: 125I-MCH ligand binding assay, rMCH. As to the method: (§1) Human embryonic kidney cells (293 total) expressing either human, rat, or mouse MCH receptor were harvested from 150 mm culture dishes using PBS. Spinning at 1500 rpm for 2 minutes initially pelleted cells. The resulting pellet was then homogenized in 15 mL ice cold sucrose buffer (25 mM HEPES, 0.3 M sucrose, pH 7.4) with a motorized, glass fitted, Teflon® homogenizer. The homogenate was centrifuged at 48,000×g at 4° C. for 10 minutes, resuspended in 15 mL assay buffer (25 mM HEPES, 10 mM mgCl2, 0.2% BSA, 0.1 mg/mL STI, 0.1 mg/mL Pefabloc®, 1 μM Phosphoramidon, pH 7.4) with a Tissue-Tearor® (Biospec Products) and centrifuged again at 48,000×g for 10 minutes. The pellet was homogenized for a third time in 15 mL assay buffer using the Tissue-Tearor® and again centrifuged at 48,000×g for 10 minutes. The resulting pellet was resuspended in assay buffer at a wet weight concentration of 10-20 mg/mL.
(§2) Binding assays were determined as described below using mouse, rat or human MCH 1 receptors (mMCH1R, rMCH1R, and hMCH1R, respectively) expressed in HEK 293; IC50 values were calculated.
(§3) Binding assays were performed in 96-well U-bottom plates. Membranes (100 μg tissue) were incubated at 30° C. for 90 minutes in assay buffer with various peptides in the presence of 0.2 nM ^125I native-MCH (Perkin-Elmer Life Sciences, Boston, Mass.) in 100 μL total volume. Non-specific binding was assessed in the presence of 1 μM cold native-MCH. The reaction was terminated by rapid filtration through Unfilter-96 GF/C glass fiber filter plates (FilterMate® 196 Harvester, Packard Instrument Co., Meriden, Conn.) pre-soaked in PBS/0.5% BSA, followed by three washes with 300 μL ice-cold water. Bound radioactivity was determined using a TopCount® microplate scintillation and luminescence counter (Packard Instrument Co., Meriden, Conn.). Nonlinear regression analyses of drug concentration curves were performed using GraphPad Prism® (GraphPad Software, Inc., San Diego, Calif.).

In test [2] the target is T2, human MCH 1 receptor (hMCH1R) (Homo sapiens, UniProt Q99705).
T2 construct: expressed in transfected cells; host or cells: HEK 293 (membranes)
T2 sequence (Q99705 whole entry): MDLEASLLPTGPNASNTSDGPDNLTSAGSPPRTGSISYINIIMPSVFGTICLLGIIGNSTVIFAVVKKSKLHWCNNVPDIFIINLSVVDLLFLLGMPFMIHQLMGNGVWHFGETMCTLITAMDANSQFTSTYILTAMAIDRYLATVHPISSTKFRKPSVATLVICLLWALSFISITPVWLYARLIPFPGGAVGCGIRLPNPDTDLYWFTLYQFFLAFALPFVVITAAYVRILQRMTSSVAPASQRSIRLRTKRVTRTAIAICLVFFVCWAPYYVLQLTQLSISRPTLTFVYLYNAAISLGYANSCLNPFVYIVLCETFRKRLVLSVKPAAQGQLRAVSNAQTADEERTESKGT
The test is described as follows: 125I-MCH ligand binding assay, hMCH. The procedure: as §1, §2, §3

In another test the target is rat MCH1 receptor (Rattus norvegicus, UniProt P97639). In words: rMCH FLIPR calcium mobilization assay (CHOK1-Gqi cells). Further details: expressed in transfected cells; host or cells: CHOK1-Gqi. Format: cell-based. The procedure: Pharmacological analyses were conducted using either a HT-PS100 device (Axiom Biotechnologies, San Diego, Calif.), which provides high-resolution dose-response fluorometric measurements of [Ca^++]i mobilization, or using a FLIPR® device (Molecular Devices, Sunnyvale, Calif.).
Chain of rat MCH1 receptor (P97639 whole entry): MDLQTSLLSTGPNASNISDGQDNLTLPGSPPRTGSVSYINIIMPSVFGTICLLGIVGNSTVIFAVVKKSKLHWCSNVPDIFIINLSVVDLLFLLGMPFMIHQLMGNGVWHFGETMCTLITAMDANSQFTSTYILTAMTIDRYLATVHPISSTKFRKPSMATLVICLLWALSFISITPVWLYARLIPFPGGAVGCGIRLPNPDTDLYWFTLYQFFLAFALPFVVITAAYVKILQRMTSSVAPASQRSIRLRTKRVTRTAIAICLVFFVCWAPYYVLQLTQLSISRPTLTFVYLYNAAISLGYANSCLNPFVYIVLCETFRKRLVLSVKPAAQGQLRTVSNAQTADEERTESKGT
Materials: Pharmacological analysis was conducted using a FLIPR® device (Molecular Devices, Sunnyvale, Calif.). CHOK1-Gqi cells were stably transfected with the rat MCH1 receptor and maintained under G418 antibiotic pressure. FLIPR® assay buffer consisted of phenol red-free DMEM+2.5 mM probenecid. […]. Test compounds were prepared as 10 mM stocks in 100% DMSO and diluted to a top end working concentration of 10 μM in 96 well black, flat bottom, collagen-I coated plates (Becton Dickinson, Bedford, Mass.).
Methods: CHOK1-Gqi cells stably expressing MCH1R were maintained in Dulbeco's modified Eagle's medium (GIBCO/Life Technologies, Rockville, Md.) supplemented with 2 mM glutamine and 10% dialyzed fetal bovine serum (HyCLone, Logan, Utah) at 37° C., 5% CO2. Cells were harvested by 10′ treatment with Versene (GIBCO/Life Technologies) followed by trituration, washing twice with cold (4° C.) hybridoma medium (Serum/Protein free, with L-glutamine, sodium bicarbonate, MOPS buffer) (Sigma-Aldrich Corp, St. Louis, Mo.) and replated onto 96 well black, flat bottom, collagen-I coated plates to a density of 10,000 cells/well. The cells were then loaded with the fluorescent calcium indicator Fura-2 (Molecular Probes, Eugene, Oreg.) at 1.6 μM for 60′ at room temperature. The loaded cells were then washed twice with 90 μl/well of wash buffer (1×HBSS, 20 mM HEPES, 2.5 mM probenecid).
Receptor-stimulated intracellular calcium responses were detected using FLIPR® by monitoring increases in the Fura-2 fluorescence response.
Test compounds were screened for MCH1R activity in the FLIPR® for both agonist and antagonist action. Agonist mode challenges were conducted at a maximum gradient concentration of 1 μM. Antagonist activity was tested by 10 min pre-incubation of cells at a compound concentration of defined to be 300× the EC50 of MCH (typically 1 μM), with subsequent introduction of MCH at a concentration 5-fold of EC50 as determined in preliminary experiments. […].
Several fixed concentrations of antagonist compounds were prepared in 10-fold increments, and presented to the cells in a gradient of increasing MCH concentration. Values for compound pA2 were calculated by linear regression of MCH EC50s as a function of antagonist concentration.
(In general: Calcium assays in cells follow changes in intracellular calcium, usually with a dye or a luminescent sensor.)

Where [3] appears, read: HEK 293 membranes, 0.2 nM 125I native-MCH, 100 μM or less list, read-out: IC50 in the rMCH binding assay.
The mark [4] stands for this setting: HEK 293 membranes, 0.2 nM 125I native-MCH, 100 μM or less list, read-out: IC50 in the hMCH binding assay.
The mark [5] stands for this setting: CHOK1-Gqi cells, rat MCH1 receptor, 100 μM or less list, read-out: Ki in the rMCH FLIPR assay.
Where [6] appears, read: HEK 293 membranes, 0.2 nM 125I native-MCH, 100 nM or less list, read-out: IC50 in the rMCH binding assay.

Results on 16 molecules are retold here after US7514438B2, “Melanin concentrating hormone receptor antagonist” (Amgen, Inc., priority 2003, dated 2009).

Read-outs that look alike come from different tables or passages of the source. Bounds are passed on as bounds.

T1 sequence (P97639 whole entry): as above

Usually IC50 stands for the midpoint of a concentration-inhibition curve. As a reminder, the Ki is the equilibrium dissociation constant of an inhibitor or competing ligand from its target. Regarding `Cc1cccc(C)c1-n1nnnc1[C@H](c1cccc(Oc2ccccc2)c1)N1CCN(C/C=C/c2ccccc2)CC1` (racemic) [Compound 12, 1-[[1-(2,6-dimethyiphenyl)-1H-tetrazol-5-yl]-(3-phenoxyphenyl)methyl]-4-(3-phenylallyl)piperazine], the IC50 in test [1] (setting [3]) and in test [2] (setting [4]) was at most 100 µM throughout. Further, the Ki on rat MCH1 receptor (setting [5]) was at most 100 µM.
As for `Cc1cccc(C)c1-n1nnnc1[C@H](COCc1ccccc1)N1CCN(C/C=C/c2ccccc2)CC1` (racemic) [Compound 69, 1-{2-benzyloxy-1-[1-(2,6-dimethylphenyl)-1H-tetrazol-5-yl]ethyl}-4-(3-phenylallyl)piperazine], the IC50 in test [1] (setting [3]) and in test [2] (setting [4]) was at most 100 µM in each case.
Turning to `Cc1cccc([C@@H](c2nnnn2-c2c(C)cccc2C)N2CCN(C/C=C/c3ccccc3)CC2)n1` (racemic) [Compound 71, 1-[[1-(2,6-dimethylphenyl)-1H-tetrazol-5-yl]-(6-methylpyridin-2-yl)methyl]-4-(3-phenylallyl)piperazine], the half-maximal inhibitory concentration (IC50) in test [1] (setting [3]) and in test [2] (setting [4]) was at most 100 µM throughout.
With `Cc1cccc(C)c1-n1nnnc1[C@H](c1cccc(Oc2ccc(Cl)c(Cl)c2)c1)N1CCN(C/C=C/c2ccccc2)CC1` (racemic) [Compound 72, 1-{[3-(3,4-dichlorophenoxy)phenyl]-[1-(2,6-dimethylphenyl)-1H-tetrazol-5-yl]methyl}-4-(3-phenylallyl) piperazine], the IC50 in test [1] (setting [3]) and in test [2] (setting [4]) was at most 100 µM throughout.
As to `Cc1ccc(Oc2cccc([C@@H](c3nnnn3-c3c(C)cccc3C)N3CCN(C/C=C/c4ccccc4)CC3)c2)cc1` (racemic) [Compound 73, 1-[[1-(2,6-dimethylphenyl)-1H-tetrazol-5-yl]-(3-p-tolyloxyphenyl)methyl]-4-(3-phenylallyl)piperazine], the IC50 in test [1] (setting [3]) and in test [2] (setting [4]) was at most 100 µM throughout.
In the case of `Cc1cccc(C)c1-n1nnnc1[C@H](c1cccnc1)N1CCN(C/C=C/c2ccccc2)CC1` (racemic) [Compound 74, 1-{[1-(2,6-dimethylphenyl)-1H-tetrazol-5-yl]pyridin-3-ylmethyl}-4-(3-phenylallyl)piperazine], the IC50 in test [1] (setting [3]) and in test [2] (setting [4]) was at most 100 µM in each case.
Consider `Cc1cccc(C)c1-n1nnnc1[C@H](c1ccccc1C#N)N1CCN(C/C=C/c2ccccc2)CC1` (racemic) [Compound 80, 2-{[1-(2,6-dimethylphenyl)-1H-tetrazol-5-yl]-[4-(3-phenylallyl)piperazin-1-yl]methyl}benzonitrile], for which the IC50 in test [1] (setting [3]) and in test [2] (setting [4]) was at most 100 µM each time.
As for `Cc1cccc(C)c1-n1nnnc1[C@H](c1cccc2c1OCO2)N1CCN(C/C=C/c2ccccc2)CC1` (racemic) [Compound 81, 1-{benzo[1,3]diaxol-4-yl-[1-(2,6-dimethylphenyl)-1H-tetrazol-5-yl]methyl}-4-(3-phenylallyl)piperazine], the IC50 in test [1] (setting [3]) and in test [2] (setting [4]) was at most 100 µM each time.
Regarding `FC(F)(F)c1cccc([C@@H](c2nnnn2-c2c(Cl)cccc2Cl)N2CCN(C/C=C/c3ccccc3)CC2)c1` (racemic) [Compound 164, 1-[[1-(2,6-dichlorophenyl)-1H-tetrazol-5-yl]-(3-trifluoromethylphenyl)methyl]-4-(3-phenylallyl)piperazine], the IC50 in test [1] (setting [3]) and in test [2] (setting [4]) was at most 100 µM throughout.
In the case of `COC(=O)C(Cc1ccccc1)n1nnnc1[C@H](c1ccccc1)N1CCN(C/C=C/c2ccccc2)CC1` (stereo in doubt) [Compound 26, 3-phenyl-2-(5-{phenyl-[4-(3-phenylallyl)piperazin-1-yl]methyl}tetrazol-1-yl)propionic acid methyl ester], the IC50 in test [1] (setting [3]) and in test [2] (setting [4]) was at most 100 µM throughout.
With `COC(=O)C(Cc1c[nH]c2ccccc12)n1nnnc1[C@H](c1ccccc1)N1CCN(C/C=C/c2ccccc2)CC1` (stereo in doubt) [Compound 31, 3-(1H-indol-3-yl)-2-(5-{phenyl-[4-(3-phenylallyl)piperazin-1-yl]methyl}tetrazol-1-yl)propionic acid methyl ester], the IC50 in test [1] (setting [3]) and in test [2] (setting [4]) was at most 100 µM in each case.
As for `C(=C\c1ccccc1)/CN1CCN([C@@H](c2ccccc2)c2nnnn2CC2CCCO2)CC1` (stereo in doubt) [Compound 33, 1-(3-phenylallyl)-4-{phenyl-[1-(tetrahydrofuran-2-ylmethyl)-1H-tetrazol-5-yl]methyl}piperazine], the IC50 in test [1] (setting [3]) and in test [2] (setting [4]) was at most 100 µM throughout.
For `CN1CCCC1CCn1nnnc1[C@H](c1ccccc1)N1CCN(C/C=C/c2ccccc2)CC1` (stereo in doubt) [Compound 37, 1-({1-[2-(1-methyl-pyrrolidin-2-yl)ethyl]-1H-tetrazol-5-yl}phenylmethyl)-4-(3-phenylallyl)piperazine], the IC50 in test [1] (setting [3]) and in test [2] (setting [4]) was at most 100 µM each time.
As for `Cc1cccc(C)c1-n1nnnc1[C@H](c1cccc(C(F)(F)F)c1)N1CCN(C/C=C/c2ccccc2)CC1` (stereo in doubt) [Compound 142, 1-[[1-(2,6-dimethylphenyl)-1H-tetrazol-5-yl]-(3-trifluoromethylphenyl)methyl]-4-(3-phenylallyl)piperazine], the IC50 in test [1] (setting [6]) was at most 0.1 µM; in test [1] (setting [3]), at most 100 µM; in test [2] (HEK 293 membranes, 0.2 nM 125I native-MCH, 100 nM or less list, read-out: IC50 in the hMCH binding assay), at most 0.1 µM; in test [2] (setting [4]) it was at most 100 µM.
Consider `Cc1cccc(C)c1-n1nnnc1C(c1ccc(-c2ccccc2)cc1)N1CCN(C/C=C/c2ccccc2)CC1` (stereo not drawn) [Compound 11, 1-{biphenyl-4-yl-[1-(2,6-dimethyiphenyl)-1H-tetrazol-5-yl]methyl}-4-(3-phenylallyl)piperazine], for which the IC50 in test [1] (setting [6]) was at most 0.1 µM; in test [1] (setting [3]), at most 100 µM; in test [2] (setting [4]) it was at most 100 µM. Also, the Ki is at most 0.1 µM on rat MCH1 receptor (CHOK1-Gqi cells, rat MCH1 receptor, 100 nM or less list, read-out: Ki in the rMCH FLIPR assay) and at most 100 µM on rat MCH1 receptor (setting [5]).
For `Cc1cccc(C)c1-n1nnnc1C1(N2CCN(C/C=C/c3ccccc3)CC2)CCCCC1` [Compound 92, 1-{1-[1-(2,6-dimethylphenyl)-1H-tetrazol-5-yl]cyclohexyl)-4-(3-phenylallyl)piperazine], the IC50 in test [1] and in test [2] was at most 100 µM each time. For the same molecule, the Ki at rat MCH1 receptor is at most 100 µM.
